Assay results: US20180249713A1, “Composition for Protection of Plants, Fruit and Vegetables” (priority 2015, published 2018)
Read-outs that look alike come from different tables or passages of the source.

What was measured:
[1] = system: Fusarium; assay: Effect on Fusarium (Spore Growth) in vitro study; format: cell-based, Fusarium culmorum
Protocol: (§1) Sensitivity towards Tebuconazole (control) and Biocides A and B (see tables 1A and 1B) respectively, was tested in petri dishes using spore suspension containing 2.5×10^4 spores/ml of each fungal isolate or a mycelium block. 5-6 different concentrations of Biocide A and B respectively, as outlined in table 3 below were used in the tests.
(§2) For the tests, the two biocides A and B where individually mixed with potato dextrose broth to achieve the appropriate test concentration. Percent inhibition was assessed after a few days depending on the fungi and its growth rates measured in relation to control.

[2] = system: Septoria tritici
[3] = system: Puccinia striiformis f. sp. tritici (Pst); assay: Indoor greenhouse study, stripe (yellow) rust, preventive and curative; format: in vivo; conditions: preventive spray one day prior to infection, curative three days later; 30, 100, 300, 1000 ppm; evaluated 16 days later
From the text: In this study we used tebuconazole as fungicidal reference (control) and the above outlined biocide A and B compositions for testing the effect on Stripe (yellow) rust, caused by Puccinia striiformis f. sp. tritici (Pst). The applied method also tests preventive and curative effects of the elected fungicide compositions.
The scale used is 0=no attack;
1=necrose with a few pustules; 5=half of the infected leafs are attacked by pustules; 10=100% attack of the leafs.
The leafs were sprayed preventive one day prior to infection with Stripe (yellow) rust. Three days later the plants were sprayed for curative purposes.
16 days later the plant were evaluated.
The following doses were used for both preventive and curative experiments: 30, 100, 300, 1000 ppm

[4] = system: Fusarium; assay: Effect on Fusarium (Mycelie Growth) in vitro study; format: cell-based, Fusarium culmorum
Protocol: as §1, §2

CC(C)(C)C(O)(CCc1ccc(Cl)cc1)Cn1cncn1 (stereo not shown) [Tebuconazole]
Growth ([1]; 0.1 ppm): 25% | Growth ([1]; 1 ppm): 0% | Growth ([1]; 3.3 ppm): 0% | Growth ([1]; 10 ppm): 0% | Growth ([1]; 33 ppm): 0% | Growth ([1]; 100 ppm): 0% | Growth ([2]; 0.1 ppm): 10% | Growth ([2]; 1 ppm): 5% | Growth ([2]; 3.3 ppm): 0% | Growth ([2]; 10 ppm): 0% | Growth ([2]; 33 ppm): 0% | Growth ([2]; 100 ppm): 0% | effect on Stripe (yellow) rust attack [3]: able to eliminate the fungi attack both in a preventive and a curative manner | Growth ([4]; 0.1 ppm): 10% | Growth ([4]; 1 ppm): 10% | Growth ([4]; 3.3 ppm): 0% | Growth ([4]; 10 ppm): 0% | Growth ([4]; 33 ppm): 0% | Growth ([4]; 100 ppm): 0%
